# Source: patent US10118930B2, “Piperidinylpyrazolopyrimidinones and their use” (BAYER PHARMA AKTIENGESELLSCHAFT, priority 2015, dated 2018)
# Counter-ions that a name gives are not always drawn.
# Test system: clot lysis (fibrinolysis) in diluted human citrated plasma, tPA-induced
# Assay: Plasma-based clot lysis assay (5%)
# Format: biochemical
# Settings: human citrated platelet-poor plasma 5%, fibrinogen 3 μM, CaCl2 10 mM, tPA 0.2 nM, 37° C., OD at 405 nm
# Procedure, shortened: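 Compounds added to 5% platelet-poor citrated human plasma with 3 μM fibrinogen in 20 mM HEPES, 150 mM NaCl, 0.01% Brij, pH 7. Clotting and lysis started with 10 mM CaCl2 and 0.2 nM tPA at 37° C. IC50 derived by comparing time courses with a blank control reaction.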
row,Compound,IC50
1,"O=c1cc(C2CCNCC2)n2ncc(-c3nc(-c4ccc(C(F)(F)F)cc4)no3)c2[nH]1 [Example 113, 7-(Piperidin-4-yl)-3-{3-[4-(trifluoromethyl)phenyl]-1,2,4-oxadiazol-5-yl}pyrazolo[1,5-a]pyrimidin-5(4H)-one hydrochloride]",44 nM
2,"Cc1nn2c(C3CCNCC3)cc(=O)[nH]c2c1C(=O)N1CCCC1 [Example 415, 2-methyl-7-(piperidin-4-yl)-3-(pyrrolidin-1-ylcarbonyl) pyrazolo[1,5-a] pyrimidin-5(4H)-one hydrochloride]",61 nM
3,"CCCOC(=O)c1c(C(F)(F)F)nn2c(C3CCNCC3)cc(=O)[nH]c12 [Example 459, Propyl 5-oxo-7-(piperidin-4-yl)-2-(trifluoromethyl)-4,5-dihydropyrazolo[1,5-a]pyrimidine-3-carboxylate hydrochloride]",83 nM
4,"O=C(O)c1noc(-c2cnn3c(C4CCNCC4)cc(=O)[nH]c23)n1 [Example 221, 5-[5-oxo-7-(piperidin-4-yl)-4,5-dihydropyrazolo[1,5-a]pyrimidin-3-yl]-1,2,4-oxadiazole-3-carboxylic acid hydrochloride]",48 nM
5,"O=C(c1cnn2c(C3CCNCC3)cc(=O)[nH]c12)N1CCC(O)CC1 [Example 95, 3-[(4-hydroxypiperidin-1-yl)carbonyl]-7-(piperidin-4-yl)pyrazolo[1,5-a]pyrimidin-5(4H)-one hydrochloride]",43 nM
6,"O=c1cc(C2CCNCC2)n2ncc(C3CC3)c2[nH]1 [Example 344, 3-cyclopropyl-7-(piperidin-4-yl)pyrazolo[1,5-a]pyrimidin-5(4H)-one hydrochloride]",120 nM
7,"N#Cc1c(Br)nn2c(C3CCNCC3)cc(=O)[nH]c12 [Example 374, 2-bromo-5-oxo-7-(piperidin-4-yl)-4,5-dihydropyrazolo[1,5-a]pyrimidine-3-carbonitrile hydrochloride]",34 nM
8,"O=c1cc(C2CCNCC2)n2ncc(-c3ccc(F)c(Cl)c3)c2[nH]1 [Example 72, 3-(3-Chloro-4-fluorophenyl)-7-(piperidin-4-yl)pyrazolo[1,5-a]pyrimidin-5(4H)-one hydrochloride]",64 nM
9,"Cc1nn2c(C3CCNCC3)cc(=O)[nH]c2c1-c1ccc(Br)cc1 [Example 10, 3-(4-Bromophenyl)-2-methyl-7-(piperidin-4-yl)pyrazolo[1,5-a]pyrimidin-5(4H)-one hydrochloride]",110 nM
10,"O=c1cc(C2CCNCC2)n2nc(-c3ccc(F)cc3)cc2[nH]1 [Example 27, 2-(4-Fluorophenyl)-7-(piperidin-4-yl)pyrazolo[1,5-a]pyrimidin-5(4H)-one hydrochloride]",170 nM
11,"Cc1cc(F)ccc1NC(=O)c1cnn2c(C3CCNCC3)cc(=O)[nH]c12 [Example 81, N-(4-fluoro-2-methylphenyl)-5-oxo-7-(piperidin-4-yl)-4,5-dihydropyrazolo[1,5-a]pyrimidine-3-carboxamide]",81 nM
12,"O=c1cc(C2CCNCC2)n2ncc(-c3nc(-c4ccc(F)cc4F)no3)c2[nH]1 [Example 158, 3-[3-(2,4-difluorophenyl)-1,2,4-oxadiazol-5-yl]-7-(piperidin-4-yl)pyrazolo[1,5-a]pyrimidin-5(4H)-one hydrochloride]",38 nM
13,"O=c1cc(C2CCNCC2)n2ncc(-c3noc(-c4cccc(Cl)c4F)n3)c2[nH]1 [Example 218, 3-[5-(3-chloro-2-fluorophenyl)-1,2,4-oxadiazol-3-yl]-7-(piperidin-4-yl)pyrazolo[1,5-a]pyrimidin-5(4H)-one hydrochloride]",54 nM

# Further lines, results first:
row,IC50,Compound
1,38 nM,"O=c1cc(C2CCNCC2)n2ncc(-c3nnc(-c4ccncc4)o3)c2[nH]1 [Example 185, 7-(piperidin-4-yl)-3-[5-(pyridin-4-yl)-1,3,4-oxadiazol-2-yl]pyrazolo[1,5-a]pyrimidin-5 (4H)-one hydrochloride]"
2,36 nM,"O=C(c1cnn2c(C3CCNCC3)cc(=O)[nH]c12)N1CCCC1 [Example 322, 7-(piperidin-4-yl)-3-(pyrrolidin-1-ylcarbonyl)pyrazolo[1,5-a]pyrimidin-5(4H)-one hydrochloride]"
3,34 nM,"COc1ccc(OC)c(-c2cnn3c(C4CCNCC4)cc(=O)[nH]c23)c1 [Example 62, 3-(2,5-Dimethoxyphenyl)-7-(piperidin-4-yl)pyrazolo[1,5-a]pyrimidin-5(4H)-one hydrochloride]"
4,34 nM,"CN1CCC(Cc2noc(-c3cnn4c(C5CCNCC5)cc(=O)[nH]c34)n2)CC1 [Example 203, 3-{3-[(1-methylpiperidin-4-yl)methyl]-1,2,4-oxadiazol-5-yl}-7-(piperidin-4-yl)pyrazolo[1,5-a]pyrimidin-5(4H)-one hydrochloride]"
5,37 nM,"CC(C)(C)c1ccc(-c2nnc(-c3cnn4c(C5CCNCC5)cc(=O)[nH]c34)o2)cc1 [Example 179, 3-[5-(4-tert-butylphenyl)-1,3,4-oxadiazol-2-yl]-7-(piperidin-4-yl)pyrazolo[1,5-a]pyrimidin-5 (4H)-one hydrochloride]"
6,35 nM,"O=c1cc(C2CCNCC2)n2ncc(-c3noc(-c4cccc(Cl)c4)n3)c2[nH]1 [Example 226, 3-[5-(3-chlorophenyl)-1,2,4-oxadiazol-3-yl]-7-(piperidin-4-yl)pyrazolo[1,5-a]pyrimidin-5 (4H)-one hydrochloride]"
7,12 nM,"Cc1nn2c(C3CCNCC3)cc(=O)[nH]c2c1-c1nc(-c2ccccc2F)no1 [Example 438, 3-[3-(2-fluorophenyl)-1,2,4-oxadiazol-5-yl]-2-methyl-7-(piperidin-4-yl)pyrazolo[1,5-a]pyrimidin-5(4H)-one hydrochloride]"
8,29 nM,"Cc1nn2c(C3CCNCC3)cc(=O)[nH]c2c1C(=O)N(C)Cc1ccccn1 [Example 428, N,2-dimethyl-5-oxo-7-(piperidin-4-yl)-N-(pyridin-2-ylmethyl)-4,5-dihydro-pyrazolo[1,5-a] pyrimidine-3-carboxamide hydrochloride]"
9,11 nM,"N#Cc1csc(-c2cnn3c(C4CCNCC4)cc(=O)[nH]c23)c1 [Example 68, 5-[5-Oxo-7-(piperidin-4-yl)-4,5-dihydropyrazolo[1,5-a]pyrimidin-3-yl]thiophene-3-carbonitrile trifluoroacetate]"
10,29 nM,"O=c1cc(C2CCNCC2)n2ncc(-c3nc(-c4cccc(F)c4)no3)c2[nH]1 [Example 112, 3-[3-(3-Fluorophenyl)-1,2,4-oxadiazol-5-yl]-7-(piperidin-4-yl)pyrazolo[1,5-a]pyrimidin-5 (4H)-one hydrochloride]"
11,31 nM,"O=c1cc(C2CCNCC2)n2ncc(-c3nc(-c4cc(Cl)ccc4F)no3)c2[nH]1 [Example 137, 3-[3-(5-Chloro-2-fluorophenyl)-1,2,4-oxadiazol-5-yl]-7-(piperidin-4-yl)pyrazolo[1,5-a]pyrimidin-5(4H)-one hydrochloride]"
12,15 nM,"O=c1cc(C2CCNCC2)n2ncc(-c3nc(-c4ccccc4)no3)c2[nH]1 [Example 35, 3-(3-Phenyl-1,2,4-oxadiazol-5-yl)-7-(piperidin-4-yl)pyrazolo[1,5-a]pyrimidin-5(4H)-one hydrochloride]"
13,24 nM,"NC(=O)c1cnn2c(C3CCNCC3)cc(=O)[nH]c12 [Example 14, 5-Oxo-7-(piperidin-4-yl)-4,5-dihydropyrazolo[1,5-a]pyrimidine-3-carboxamide hydrochloride]"
14,16 nM,"CCc1noc(-c2c(C)nn3c(C4CCNCC4)cc(=O)[nH]c23)n1 [Example 300, 3-(3-ethyl-1,2,4-oxadiazol-5-yl)-2-methyl-7-(piperidin-4-yl)pyrazolo[1,5-a]pyrimidin-5(4H)-one hydrochloride]"
15,34 nM,"O=c1cc(C2CCNCC2)n2ncc(-c3ccccc3OC(F)(F)F)c2[nH]1 [Example 71, 7-(Piperidin-4-yl)-3-[2-(trifluoromethoxy)phenyl]pyrazolo[1,5-a]pyrimidin-5(4H)-one hydrochloride]"
16,14 nM,"O=c1cc(C2CCNCC2)n2ncc(-c3noc(C4CCCC4)n3)c2[nH]1 [Example 385, 3-(5-Cyclopentyl-1,2,4-oxadiazol-3-yl)-7-(piperidin-4-yl)pyrazolo[1,5-a]pyrimidin-5(4H)-one hydrochloride]"
17,23 nM,"Cc1ccccc1-c1noc(-c2c(C)nn3c(C4CCNCC4)cc(=O)[nH]c23)n1 [Example 440, 2-methyl-3-[3-(2-methylphenyl)-1,2,4-oxadiazol-5-yl]-7-(piperidin-4-yl)pyrazolo[1,5-a]pyrimidin-5(4H)-one hydrochloride]"
18,19 nM,"COc1ccc(-c2cnn3c(C4CCNCC4)cc(=O)[nH]c23)cn1 [Example 69, 3-(6-Methoxypyridin-3-yl)-7-(piperidin-4-yl)pyrazolo[1,5-a]pyrimidin-5 (4H)-one]"
19,37 nM,"Cc1nn2c(C3CCNCC3)cc(=O)[nH]c2c1C(=O)N1CCC2CCCCC2C1 (centres unmarked) [Example 405, 2-methyl-3-(octahydro-isoquinolin-2(1H)-ylcarbonyl)-7-(piperidin-4-yl) pyrazolo[1,5-a] pyrimidin-5(4H)-one hydrochloride]"
20,13 nM,"N#Cc1ccc(-c2cnn3c(C4CCNCC4)cc(=O)[nH]c23)cc1 [Example 47, 4-[5-Oxo-7-(piperidin-4-yl)-4,5-dihydropyrazolo[1,5-a]pyrimidin-3-yl]benzonitrile trifluoroacetate]"
21,32 nM,"Cc1ccc(Cc2noc(-c3cnn4c(C5CCNCC5)cc(=O)[nH]c34)n2)cc1 [Example 214, 3-[3-(4-methylbenzyl)-1,2,4-oxadiazol-5-yl]-7-(piperidin-4-yl)pyrazolo[1,5-a]pyrimidin-5(4H)-one hydrochloride]"

# Same assay, conditions: human citrated platelet-poor plasma 5%, fibrinogen 3 μM, CaCl2 10 mM, tPA 0.2 nM, 37° C., OD at 405 nm; hydrochloride
row,IC50,Compound
1,34 nM,"CCc1noc(-c2cnn3c(C4CCNCC4)cc(=O)[nH]c23)n1 [Example 199, 3-(3-ethyl-1,2,4-oxadiazol-5-yl)-7-(piperidin-4-yl)pyrazolo[1,5-a]pyrimidin-5(4H)-one hydrochloride]"
